Laboratory results from patent US10857153B2, “Pyrimidine compounds containing acidic groups” (Apros Therapeutics, Inc., priority 2018, dated 2020).

Key:
TLR7 = test: Pharmacodynamic experiment: serum IP-10 after intranasal dosing; format: in vivo; conditions: BALB/c mice, 60 micrograms intranasally, 5 hours
Method: IP-10 is a biomarker of TLR7 target activation. Higher production levels of IP-10 is an indication of higher target engagement in vivo. In this study, 3 BALB/c mice per group were dosed intranasally with 60 micrograms of Compound 1B, 2B, 3B, Compound 50 or AZD8848. The test compounds were formulated as a 1 mg/mL solution in 0.5% carboxy methycellulose. Animals were sacrificed after 5 hours. Serum IP-10 concentrations were measured using a commercial ELISA kit purchased from Meso Scale Discovery.

[1] = tested on: CT26 cells stably expressing luciferase; test: CT26 metastatic lung cancer model; conditions: for median survival time: intranasal, in combination with anti-PD-L1, twice a week, 8 doses; for mean bioluminescence (tumor burden) versus anti-PD-L1 or anti-PD-L1 with Compound 50 or AZD8848: in combination with anti-PD-L1, for more than 20 days after injection of tumor cells
Method: To establish a lung cancer model, 5e5 CT26 cells stably expressing luciferase (Imanis Life Sciences) were injected intravenously into female Balb/c mice on Day 0. On Day 4 post challenge, mice were anesthetized and subjected to whole body bioluminescent imaging (IVIS; Perkin Elmer) to determine tumor burden and in vivo location. Mice with detectable lung tumors were enrolled into the study and randomized such that the average bioluminescence and variance is equivalent amongst all of the study groups. Animals were dosed twice a week for a total of 8 doses with the indicated treatments, and imaged weekly to determine total tumor burden over the course of the treatment.
The known TLR7 compound AZD8848 was used as a comparator and administered in combination with anti-PD-L1 to the mice. […] Each treatment group contained 10 mice.

[2] = Formulation preparation and solubility examination; format: physicochemical; conditions: 1 mg/mL in 0.5% carboxy methycellulose in water, pH 6-7
Method: The resulting formulations were vortexed and stored at 4° C. before dosing.

human TLR7 = molecular target: T1, human TLR7 (Homo sapiens, UniProt Q9NYK1); test: HEK-TLR7 assay (HEK-Blue hTLR7 cells, SEAP reporter); format: cell-based; conditions: 16 h
T1 construct: host or cells: HEK293 (HEK-Blue™ hTLR7)
T1 sequence (Q9NYK1 27-1049): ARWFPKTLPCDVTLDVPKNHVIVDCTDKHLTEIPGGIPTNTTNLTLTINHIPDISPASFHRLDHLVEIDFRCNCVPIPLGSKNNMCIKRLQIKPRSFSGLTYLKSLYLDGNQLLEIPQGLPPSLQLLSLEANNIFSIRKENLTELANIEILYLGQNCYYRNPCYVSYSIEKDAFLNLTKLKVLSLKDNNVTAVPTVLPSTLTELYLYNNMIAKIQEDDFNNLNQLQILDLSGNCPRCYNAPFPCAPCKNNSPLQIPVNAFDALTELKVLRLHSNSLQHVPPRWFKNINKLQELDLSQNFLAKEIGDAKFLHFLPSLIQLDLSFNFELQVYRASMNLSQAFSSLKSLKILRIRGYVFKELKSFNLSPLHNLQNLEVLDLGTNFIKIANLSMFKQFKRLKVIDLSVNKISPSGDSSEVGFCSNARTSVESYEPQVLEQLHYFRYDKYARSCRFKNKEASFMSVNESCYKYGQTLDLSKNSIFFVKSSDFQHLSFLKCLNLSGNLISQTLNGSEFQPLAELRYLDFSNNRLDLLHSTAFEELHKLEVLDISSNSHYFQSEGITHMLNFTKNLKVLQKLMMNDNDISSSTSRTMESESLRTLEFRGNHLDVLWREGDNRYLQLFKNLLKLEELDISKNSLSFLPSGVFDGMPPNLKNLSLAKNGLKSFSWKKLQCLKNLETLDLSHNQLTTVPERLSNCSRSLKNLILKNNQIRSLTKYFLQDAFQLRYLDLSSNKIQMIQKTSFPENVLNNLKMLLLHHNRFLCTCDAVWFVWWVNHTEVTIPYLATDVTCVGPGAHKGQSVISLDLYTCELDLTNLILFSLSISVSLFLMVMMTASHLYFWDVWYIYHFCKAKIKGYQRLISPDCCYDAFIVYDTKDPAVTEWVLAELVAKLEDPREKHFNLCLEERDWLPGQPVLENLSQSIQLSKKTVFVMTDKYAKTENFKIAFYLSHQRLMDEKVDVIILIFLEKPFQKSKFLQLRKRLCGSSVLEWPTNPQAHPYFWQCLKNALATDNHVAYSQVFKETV
Description: HEK-Blue™ TLR7 cells were purchased from Invivogen (San Diego, Calif.). The following description was taken from the product information sheet.
“HEK-Blue™ hTLR7 cells are designed for studying the stimulation of human TLR7 (hTLR7) by monitoring the activation of NF-kB. HEK-Blue™ hTLR7 cells were obtained by co-transfection of the hTLR7 gene and an optimized secreted embryonic alkaline phosphatase (SEAP) reporter gene into HEK293 cells. The SEAP reporter gene is placed under the control of the IFN-b minimal promoter fused to five NF-kB and AP-1-binding sites. Stimulation with a TLR7 ligand activates NF-kB and AP-1 which induce the production of SEAP, which is detected by the HEK-Blue™ Detection cell culture medium.”
A typical assay protocol involved the following steps: • 1. Cells were cultured according to the product information sheet. • 2. 10 mM compound stock in DMSO were first diluted to 3 mM and then 3-fold serially diluted using DMSO to afford a 10-pt dilution. • 3. 3 μl of the diluted DMSO were added to 57 μl HEK-Blue™ Detection media for a further 20-fold dilution. • 4. 10 μl of the diluted compound in assay media were added into 40 μl cell culture (in HEK-Blue™ Detection media) in 384-well plate. Final cell concentration=8,000 cells per well. • 5. The plates were incubated at 37° C. in 5% CO2 for 16 h. SEAP was determined using a spectrophotometer at 620-655 nm.

SMILES	mean serum IP-10 concentration (TLR7)	median survival time [1] [days]	appearance of formulation (solubility) [2]	EC50 (human TLR7) [nM]	mean bioluminescence (tumor burden) versus anti-PD-L1 or anti-PD-L1 with Compound 50 or AZD8848 [1]
CCCCOc1nc(N)c2[nH]c(=O)n(CCCN(CCCN3CCOCC3)Cc3cccc(CC(=O)OC)c3)c2n1 [AZD8848, reference compound]	96 pg/mL	23	turbid suspension	37	
CCCC[C@@H](CCS(C)(=O)=O)Nc1nc(N)nc(CCC(=O)O)c1Cc1cc(Cc2nn[nH]n2)ccc1OC [Compound 1B, (S)-3-(5-(5-((2H-tetrazol-5-yl)methyl)-2-methoxybenzyl)-2-amino-6-((1-(methyl-sulfonyl)heptan-3-yl)amino)pyrimidin-4-yl)propanoic acid]	about 700 pg/mL	36		230	lower
CCCC[C@@H](CCO)Nc1nc(N)nc(CCC(=O)O)c1Cc1cc(CC(=O)O)ccc1OC [Compound 2B, (S)-3-(2-amino-5-(5-(carboxymethyl)-2-methoxybenzyl) -6-((1-hydroxyheptan-3-yl)amino)pyrimidin-4-yl)propanoic acid]	~150 pg/mL	32		270	lower
CCCC[C@@H](CCO)Nc1nc(N)nc(CCC(=O)O)c1Cc1cc(Cc2nn[nH]n2)ccc1OC [Compound 3B, (S)-3-(5-(5-((2H-tetrazol-5-yl)methyl)-2-methoxybenzyl)-2-amino-6-((1-hydroxyheptan-3-yl)amino)pyrimidin-4-yl)propanoic acid]	~1300 pg/mL	36		270	lower
CCCC[C@@H](CCS(C)(=O)=O)Nc1nc(N)nc(CCC(=O)O)c1Cc1cc(CC(=O)O)ccc1OC [Compound 50, reference compound]	125 pg/mL	29	clear	260	
